Earlier results in patent US6605646B2, “Vitamin supplement composition” (Upsher-Smith Laboratories, Inc., priority 1995, dated 2003).

Conditions: grain fortification, elderly adults

For `Nc1nc2ncc(CNc3ccc(C(=O)N[C@@H](CCC(=O)O)C(=O)O)cc3)nc2c(=O)[nH]1` [folic acid, pteroylglutamic acid], the serum folate is listed as “increased serum folate” and the serum homocysteine is listed as “decreased serum homocysteine”.
